# Measured values published in PMC7109729 (Haematologica, 2020).
# Target: T1, peroxisome proliferator-activated receptor-γ (PPARγ) (Homo sapiens, UniProt P37231)
# T1 sequence (P37231 223-505 limits assumed): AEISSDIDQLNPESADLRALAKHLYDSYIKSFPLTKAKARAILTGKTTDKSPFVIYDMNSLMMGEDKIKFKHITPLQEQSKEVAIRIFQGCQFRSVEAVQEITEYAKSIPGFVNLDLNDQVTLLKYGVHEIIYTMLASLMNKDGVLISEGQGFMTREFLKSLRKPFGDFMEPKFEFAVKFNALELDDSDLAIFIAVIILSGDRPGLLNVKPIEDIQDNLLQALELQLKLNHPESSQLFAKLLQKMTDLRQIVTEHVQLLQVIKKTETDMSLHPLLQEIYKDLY
# Assay: SPR
# Assay type: binding
smiles,measurement,value
"CC(C)/N=c1\cc2n(-c3ccc(Cl)cc3)c3ccccc3nc-2cc1Nc1ccc(Cl)cc1 [CFZ, clofazimine]",Kd,79 nM
